# No end group written: not given here.
# Assays:
# [1] = GVHD in experimental HSCT with donor T cells and DCs; assay type: in vivo, mouse; details: 10^5 donor T cells plus Thymosin alpha 1-treated GM-DCs, uninfected mice
# Protocol: Human peripheral blood mononuclear cells were obtained from healthy donors and seven recipients of T-cell depleted haploidentical HSCT, upon written informed consent. Donor typing, engraftment and GVHD were assessed as described (Blood. 2005; 106; 4397-4406). Experimental HSCT model Lethally irradiated (8 Gy) C57BL6 mice were infused with T cell-depleted bone marrow cells from BALB/c mice (Blood. 2003; 102:3807-3814). For GVHD, purified donor CD3+ T splenocytes were added to the graft (Science. 2002; 295:2097-2100). Individual mice were graded weekly from 0-2 for each GVHD criterion (see legend to FIG. 3) without knowledge of treatment group.
# Mice were either left uninfected for the assessment of GVHD or infected for the assessment of susceptibility to infection. […]
# Resistance to infection was assessed in terms of MST (median survival time in days) and fungal growth in the lung ([…] glucosamine content, bars indicating standard errors) 3 days after infection or at the time of death (A). […] The degree of systemic GVHD was assessed by a scoring system that sums changes in five clinical parameters: weight loss, posture (hunching), activity, fur texture, and skin integrity (maximum index=10). […]
# GM-DCs or FL-DCs = assay: Cytokine production and T cell priming by human DCs (ELISA); assay type: cell-based
# Source text: GM-DCs or FL-DCs were obtained from purified CD14+ monocytes from healthy donors or transplanted patients (1 month post-HSCT) cultured in Iscove's modified medium for 7-9 days, in the presence of rGM-CSF (Schering-Plough, Milan, Italy) and rIL-4 (Peprotech, Inalco, Milan, Italy) or FLT3-L (Immunex Corporation, Seattle, Wash.) (Blood. 2004; 103:4232-4239). DC recovery was between 20-30% reduced in cultures from transplanted patients. Murine GM-DCs or FL-DCs were obtained from bone marrow cells for 7-9 days, as described (Blood. 2004; 103:4232-4239). Thymosin alpha 1 and sThymosin alpha 1 were added to the cultures at 20 ng/mL. DCs (>99% CD11c+ consisting of 90-95% CD8-, 5-10% CD8+, and 1-5% B220+ cells) were purified from spleens (spDCs) by magnetic-activated sorting using CD11c MicroBeads and MidiMacs (Miltenyi Biotech). DC populations were further separated into CD8−, CD8+ and B220+ fractions by means of CD8 or B220 MicroBeads (Miltenyi Biotech). DCs were pulsed in serum-free Iscove medium for 24 hours with live unopsonized Aspergillus conidia or Zymosan from Saccharomyces cerevisiae (Sigma) or CpG-ODN 2006 as described.7 Phagocytosis was done as described (Blood. 2004; 103:4232-4239). Photographs were taken using a high Resolution Microscopy Color Camera AxioCam, using the AxioVision Software Rel. 3.1 (Carl Zeiss, Milan, Italy).
# Cytokine content was assessed by enzyme-linked immunosorbent assays (Endogen Human Elisa Kits, R&D Systems and Euroclone, Milan, Italy). AID EliSpot assay kits (Amplimedical, Buttigliera Alta, Turin, Italy) were used on purified splenic CD4+ Tcells cocultured with conidia-pulsed DCs for 5 days to enumerate cytokine-producing cells (Blood. 2003; 102:3807-3814). 1-MT was used at 2 μM.
# (C) Cytokine production (pg/mL by ELISA) by Thymosin alpha 1-induced DCs from healthy donors cultured in serum-free medium (1×10^6 cells/mL) with unopsonized Aspergillus conidia (5×10^5/mL) or 10 μg/mL Zymosan or 2 μg/mL CpG-B ODN 2006 for 24 hours. The data shown are aggregated results from three independent experiments and presented in the mean±SD. […]
substance,measurement,setting,value
"Thymosin alpha 1: naturally occurring thymic peptide; supplied as purified, endotoxin-free sterile lyophilized acetylated polypeptide from SciClone Pharmaceuticals (Ac-SDAAVDTSSEITTKDLKEKKEVVEEAEN; UniProt P06454 2-29, looked up)",acceleration of GVHD induction by GM-DCs,[1],totally prevented the effect
same,IL-10 production by GM-DCs,"GM-DCs or FL-DCs; healthy donors, Aspergillus conidia, 24 hours",produced increased levels of IL-10
same,IFN-a production,"GM-DCs or FL-DCs; in response to Aspergillus conidia, Zymosan or CpG ODN",mainly produced by FL-DCs or Thymosin alpha 1-treated GM-DCs
same,priming for IL-10-producing CD4+ T cells,"GM-DCs or FL-DCs; in vitro, Thymosin alpha 1-treated GM-DCs",primed for IL-10-producing CD4+ T cells in vitro

# — patent publication US8022036B2, “Use of thymosin alpha 1 for the treatment of immunological diseases” (Sigma-Tau Industrie Farmaceutiche Riunite S.p.A., priority 2006, dated 2011)
